Test results published in US7390806B2, “Antibiotics containing borinic acid complexes and methods of use” (Anacor Pharmaceuticals, Inc., priority 2002, dated 2008).
Converted amounts (≈) assume the structure as drawn. Read-outs that look alike come from different tables or passages of the source.

Experiments:
[1] = tested on: S. pneumoniae ATCC 6301; experiment: MIC determination, S. pneumoniae ATCC 6301; assay type: cell-based, Streptococcus pneumoniae; settings: for MIC S. pneumonia ATCC 6301: Table 2; for MIC: Streptococcus pneumoniae, ATCC6301, Table 2, read-out: MIC S. pneumonia ATCC 6301
[2] = tested on: E. faecium CT-26; experiment: MIC determination, E. faecium CT-26; assay type: cell-based, Enterococcus faecium; settings: for MIC E. faecium CT-26: Table 2; for MIC: Enterococcus faecium, CT26, Table 2, read-out: MIC E. faecium CT-26
[3] = tested on: S. epidermidis ATCC 12228; experiment: MIC determination, S. epidermidis ATCC 12228; assay type: cell-based, Staphylococcus epidermidis; settings: for MIC S. epidermidis ATCC 12228: Table 2; for MIC: Staphylococcus epidermidis, read-out: MIC S. epidermidis ATCC 12228
[4] = tested on: H. influenzae ATCC 49766; experiment: MIC determination, H. influenzae ATCC 49766; assay type: cell-based, Haemophilus influenzae; settings: Table 2; for MIC: Haemophilus influenzae, ATCC49766
[5] = tested on: E. faecalis ATCC 29212; experiment: MIC determination, E. faecalis ATCC 29212; assay type: cell-based, Enterococcus faecalis; settings: for MIC E. faecalis ATCC 29212: Table 2; for MIC: Enterococcus faecalis, read-out: MIC E. faecalis ATCC 29212
[6] = tested on: S. aureus ATCC 29213; experiment: MIC determination, S. aureus ATCC 29213; assay type: cell-based, Staphylococcus aureus; settings: for MIC S. aureus ATCC 29213: Table 2; for MIC: Staphylococcus aureus, read-out: MIC S. aureus ATCC 29213

| SMILES | MIC S. pneumonia ATCC 6301 [1] [micrograms per ml] | MIC E. faecium CT-26 [2] [micrograms per ml] | MIC S. epidermidis ATCC 12228 [3] [micrograms per ml] | MIC H. influenzae ATCC 49766 [4] [micrograms per ml] | MIC E. faecalis ATCC 29212 [5] [micrograms per ml] | MIC S. aureus ATCC 29213 [6] [micrograms per ml] | MIC [1] [µg/mL] | MIC [2] [µg/mL] | MIC ([3]; ATCC12228, Table 2) [µg/mL] | MIC [4] [µg/mL] | MIC ([5]; ATCC29212, Table 2) [µg/mL] | MIC ([6]; ATCC29213, Table 2) [µg/mL] | MIC ([3]; ATCC12228, Table 1) [µg/mL] | MIC ([5]; ATCC29212, Table 1) [µg/mL] | MIC ([6]; ATCC29213, Table 1) [µg/mL] |
| --- | --- | --- | --- | --- | --- | --- | --- | --- | --- | --- | --- | --- | --- | --- | --- |
| CC1(C)O[B-](c2cccc(Cl)c2)(c2cccc(Cl)c2)[n+]2cccc(O)c21 [Compound 102] | 0.25 | 2 | 1 | 64 | 64 | 0.5 |  |  |  |  |  |  |  |  |  |
| CC1(C)O[B-](c2ccc(Cl)cc2)(c2ccc(Cl)cc2)[n+]2cccc(O)c21 [Compound 103] | 0.5 | 1 | 0.5 | 64 | 4 | 0.25 |  |  |  |  |  |  |  |  |  |
| OCc1ccccn1 [Compound 105, 2-hydroxymethylpyridine] |  |  |  |  |  |  | 4 (≈ 36.7 µM) | 32 (≈ 293 µM) | 4 (≈ 36.7 µM) | 4 (≈ 36.7 µM) | 32 (≈ 293 µM) | 0.125 (≈ 1.15 µM) |  |  |  |
| O=C(O)Cc1ccccn1 [Compound 106, 2-pyridylacetic acid] |  |  |  |  |  |  |  | 64 (≈ 467 µM) | 4 (≈ 29.2 µM) | 64 (≈ 467 µM) | 64 (≈ 467 µM) | 0.5 (≈ 3.65 µM) |  |  |  |
| O=C(O)c1ncccc1OCCO [Compound 107] |  |  |  |  |  |  |  | 8 (≈ 43.7 µM) | 4 (≈ 21.8 µM) | 32 (≈ 175 µM) | 16 (≈ 87.4 µM) | 0.125 (≈ 0.682 µM) |  |  |  |
| O=C(O)c1ncccc1OCCN1CCOCC1 [Compound 108] |  |  |  |  |  |  |  | 2 (≈ 7.93 µM) | 4 (≈ 15.9 µM) | 64 (≈ 254 µM) | 4 (≈ 15.9 µM) | 0.25 (≈ 0.991 µM) |  |  |  |
| Cc1ccc([B-]2(c3ccc(C)c(Cl)c3)OC(=O)c3c(OCCCC(=O)O)ccc[n+]32)cc1Cl [Compound 109] | 4 | 16 | 4 | 16 | 32 | 1 |  |  |  |  |  |  |  |  |  |
| O=C(O)c1cccnc1C(=O)O [Compound 110, 3-carboxypicolinic acid] |  |  |  |  |  |  |  | 8 (≈ 47.9 µM) | 4 (≈ 23.9 µM) | 8 (≈ 47.9 µM) | 8 (≈ 47.9 µM) | 0.125 (≈ 0.748 µM) |  |  |  |
| Cc1ccc(B(OC(=O)c2ncccc2O)c2ccc(C)c(Cl)c2)cc1Cl [Compound 111, Bis(3-Chloro-4-methylphenyl)borinic acid 3-hydroxypicolinate ester] |  | 2 | 1 | 64 | 2 | 2 |  |  |  |  |  |  |  |  |  |
| O=C(O)c1ncccc1O [Compound 112, 3-hydroxypicolinic acid] |  | 8 | 2 | 64 | 4 | 4 |  |  |  |  |  |  |  |  |  |
| O=C(O)c1ncccc1O [Compound 113, 3-hydroxypicolinic acid] |  | 64 | 1 | 64 | 2 | 0.5 |  |  |  |  |  |  |  |  |  |
| O=C(O)c1ncccc1O [Compound 114, 3-hydroxypicolinic acid] |  | 64 | 8 | 16 | 64 | 0.125 |  |  |  |  |  |  |  |  |  |
| O=C(O)c1ncccc1O [Compound 115, 3-hydroxypicolinic acid] | 1 | 16 | 2 | 64 | 8 | 2 |  |  |  |  |  |  |  |  |  |
| O=C(O)c1ncccc1O [Compound 116, 3-hydroxypicolinic acid] | 0.25 | 4 | 1 | 64 | 4 | 2 |  |  |  |  |  |  |  |  |  |
| O=C(O)c1ncccc1O [Compound 117, 3-hydroxypicolinic acid] | 0.5 | 4 | 1 | 16 | 4 | 2 |  |  |  |  |  |  |  |  |  |
| Cc1cc(Cl)ccc1B(OC(=O)c1ncccc1O)c1ccc(Cl)cc1C [Compound 118, bis(2-methyl-4-chlorophenyl)borinic acid 3-hydroxypicolinate ester] | 0.12 | 1 | 0.25 | 16 | 1 | 1 |  |  |  |  |  |  |  |  |  |
| CC(=O)Oc1ccc[n+]2c1C(=O)O[B-]2(c1ccc(C)c(Cl)c1)c1ccc(C)c(Cl)c1 [Compound 119] |  | 2 | 1 | 64 | 2 | 2 |  |  |  |  |  |  |  |  |  |
| Clc1cccc(B(OCCc2c[nH]cn2)c2cccc(Cl)c2)c1 [Compound 121, Bis(3-Chlorophenyl)borinic acid 4-(hydroxyethyl)imidazole ester] | 8 | 32 | 4 | 4 | 32 | 0.125 |  |  |  |  |  |  |  |  |  |
| Nc1ccc(O)c(C(=O)O)n1 [Compound 122] |  |  |  |  |  |  | 16 (≈ 104 µM) | 32 (≈ 208 µM) | 4 (≈ 26 µM) | 8 (≈ 51.9 µM) | 32 (≈ 208 µM) | 0.25 (≈ 1.62 µM) |  |  |  |
| CC[C@H]1OC(=O)[C@H](C)[C@@H](O[C@H]2C[C@@](C)(OC)[C@@H](O)[C@H](C)O2)[C@H](C)[C@@H](O[C@@H]2O[C@H](C)C[C@H](N(C)C)[C@H]2O)[C@](C)(O)C[C@@H](C)C(=O)[C@H](C)[C@@H](O)[C@]1(C)O [Erythromycin, reference compound] |  |  |  |  |  |  |  |  | 0.5 (≈ 0.681 µM) | 4 (≈ 5.45 µM) | 2 (≈ 2.73 µM) | 0.5 (≈ 0.681 µM) | 0.5 (≈ 0.681 µM) | 2 (≈ 2.73 µM) | 0.5 (≈ 0.681 µM) |
| C[C@@H](O)[C@H]1C(=O)N2C(C(=O)O)=C(S[C@@H]3CN[C@H](C(=O)N(C)C)C3)[C@H](C)[C@H]12 [Meropenem, reference compound] |  |  |  |  |  |  |  |  | 0.06 (≈ 0.156 µM) | 0.06 (≈ 0.156 µM) | 2 (≈ 5.22 µM) | 0.06 (≈ 0.156 µM) | 0.06 (≈ 0.156 µM) | 2 (≈ 5.22 µM) | 0.06 (≈ 0.156 µM) |
